Experiments:
Details in all cases: 72 h
BV-173 [1] = tested on: BV-173
Summary of the method: (§1)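 For the IC50, dose–response curves were fitted with a log-logistic model. The data came from fifteen myeloid leukaemia cell lines grown in RPMI 1640 at densities in the linear growth range and incubated in 384-well plates for 72 h at 37 °C under 5% CO2. Doses were five tenfold steps from 1 to 10,000 nM in duplicate, and luminescent ATP viability was normalised to vehicle and to a positive control at 10 µM before four-parameter fitting.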

HEL [2] = tested on: HEL
Summary of the method: as §1

HL-60 [3] = tested on: HL-60
Summary of the method: as §1

K-562 [4] = tested on: K-562
Summary of the method: as §1

KCL-22 [5] = tested on: KCL-22
Summary of the method: as §1

KG-1 [6] = tested on: KG-1
Summary of the method: as §1

KU-812 [7] = tested on: KU-812
Summary of the method: as §1

LAMA-84 [8] = tested on: LAMA-84
Summary of the method: as §1

ML-2 [9] = tested on: ML-2
Summary of the method: as §1

MOLM-13 [10] = tested on: MOLM-13
Summary of the method: as §1

MV4-11 [11] = tested on: MV4-11
Summary of the method: as §1

Mono-Mac-6 [12] = tested on: Mono-Mac-6
Summary of the method: as §1

NOMO-1 [13] = tested on: NOMO-1
Summary of the method: as §1

SHI-1 [14] = tested on: SHI-1
Summary of the method: as §1

THP-1 [15] = tested on: THP-1
Summary of the method: as §1

BV-173 [16] = assay: cell viability (% survival relative to DMSO control, bortezomib = 0%); higher = less cytotoxic
Summary of the method: (§2)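 Percent survival is reported as the mean of duplicate wells. Cells from 10 AML and 5 CML lines were plated in 384-well plates containing compounds at 1, 10, 100, 1000 or 10000 nM and kept for 72 h at 37 °C in 5% CO2. Readout used CellTiter-Glo luminescence, scaled so that vehicle equals 100% and a 10 µM positive control equals 0%.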

HEL [17] = assay: as above
Summary of the method: as §2

HL-60 [18] = assay: as above
Summary of the method: as §2

K-562 [19] = assay: as above
Summary of the method: as §2

KCL-22 [20] = assay: as above
Summary of the method: as §2

KG-1 [21] = assay: as above
Summary of the method: as §2

KU-812 [22] = assay: as above
Summary of the method: as §2

LAMA-84 [23] = assay: as above
Summary of the method: as §2

ML-2 [24] = assay: as above
Summary of the method: as §2

MOLM-13 [25] = assay: as above
Summary of the method: as §2

MV4-11 [26] = assay: as above
Summary of the method: as §2

Mono-Mac-6 [27] = assay: as above
Summary of the method: as §2

NOMO-1 [28] = assay: as above
Summary of the method: as §2

SHI-1 [29] = assay: as above
Summary of the method: as §2

THP-1 [30] = assay: as above
Summary of the method: as §2

COc1cc(/C=C/c2ccc(OC)cc2OC)cc(OC)c1 [2,3',4,5'-Tetramethoxystilbene]
Details	IC50 (cell viability) [µM]
BV-173 [1]	> 10
HEL [2]	> 10
HL-60 [3]	> 10
K-562 [4]	> 10
KCL-22 [5]	> 10
KG-1 [6]	> 10
KU-812 [7]	> 10
LAMA-84 [8]	> 10
ML-2 [9]	> 10
MOLM-13 [10]	> 10
MV4-11 [11]	> 10
Mono-Mac-6 [12]	> 10
NOMO-1 [13]	> 10
SHI-1 [14]	> 10
THP-1 [15]	> 10

cell viability [%]
Details	1 nM	10 nM	100 nM	1000 nM	10000 nM
BV-173 [16]	104	104	99.1	103	79.6
HEL [17]	106	106	99.2	103	106
HL-60 [18]	109	86.2	96.2	105	81.2
K-562 [19]	108	113	106	101	89.5
KCL-22 [20]	94.7	110	98.7	106	104
KG-1 [21]	94.9	110	91.9	101	79.7
KU-812 [22]	101	95.5	96.9	97.4	76.8
LAMA-84 [23]	103	104	99.4	96.4	94.3
ML-2 [24]	80.1	102	102	115	72.9
MOLM-13 [25]	105	105	86.4	107	100
MV4-11 [26]	103	106	98.4	98.4	86
Mono-Mac-6 [27]	94.6	97.2	95.3	100	104
NOMO-1 [28]	97.5	106	95.7	108	94.9
SHI-1 [29]	99.7	123	99.4	104	98.9
THP-1 [30]	97.3	107	108	109	75.3

CC(C)(O)CNc1nc(Nc2ccnc(C(F)(F)F)c2)nc(-c2cccc(C(F)(F)F)n2)n1 [Enasidenib]
Details	IC50 (cell viability) [µM]
BV-173 [1]	> 10
HEL [2]	> 10
HL-60 [3]	> 10
K-562 [4]	> 10
KCL-22 [5]	> 10
KG-1 [6]	> 10
KU-812 [7]	> 10
LAMA-84 [8]	> 10
ML-2 [9]	> 10
MOLM-13 [10]	> 10
MV4-11 [11]	> 10
Mono-Mac-6 [12]	> 10
NOMO-1 [13]	> 10
SHI-1 [14]	> 10
THP-1 [15]	> 10

cell viability [%]
Details	1 nM	10 nM	100 nM	1000 nM	10000 nM
BV-173 [16]	101	90.7	121	98.4	90
HEL [17]	106	106	123	111	85.6
HL-60 [18]	118	108	118	99.1	106
K-562 [19]	93.1	98.3	98.3	95.2	82.5
KCL-22 [20]	89.2	102	113	97.4	93.6
KG-1 [21]	103	95	107	92.8	117
KU-812 [22]	92.4	97.2	103	90	93.2
LAMA-84 [23]	101	94.8	99.1	104	103
ML-2 [24]	109	100	113	97.3	68.8
MOLM-13 [25]	83.9	90.8	98.5	101	103
MV4-11 [26]	101	88.9	112	103	81.1
Mono-Mac-6 [27]	94.8	100	113	107	126
NOMO-1 [28]	98.3	98.8	107	93.6	92.9
SHI-1 [29]	109	105	114	113	109
THP-1 [30]	101	103	114	93.5	97.5

From the supplement of paper PMC8671470
